Laboratory results from patent US20260315436A1, “METHOD OF TREATING DISORDERS WITH SURF1 MALFUNCTION” (Cure Mito Foundation, priority 2023, published 2026).
“Also recorded” adds a separate entry of the source.

Key:
[1] = system: GM28012 SURF1 fibroblasts; experiment: Seahorse mitochondrial stress test, fibroblast cell line GM28012 (Experiment 3, single compounds); type: cell-based, human; conditions: 48 h; for increase in respiration compared with GM28010: GM28012 vs GM28010; for total ATP: highest concentration (10 uM)
Experimental: (§1) In order to evaluate selected compounds' impact on mitochondrial function in patient-derived fibroblasts compared to controls, three seahorse assays were conducted, Exp. 1: Fibroblast cell line GM28010—single compounds; Exp. 2. Fibroblast cell line GM28010—combination of compounds+ Single compounds; and Exp. 3: Fibroblast cell line GM28012—single compounds. Seahorse XF24 Extracellular Flux Analyzers continuously measure oxygen concentration and proton flux in the cell supernatant over time (Wu et al., 2007). The oxygen concentration and proton flux measurements are converted in OCR and ECAR values. This enables a direct quantification of mitochondrial respiration and glycolysis. The aim of the seahorse assays is to evaluate the impact of selected compounds on mitochondrial function in patient-derived fibroblasts compared to controls. Compounds used in the seahorse assays include posacanazole, sertaconazole, glabridin, zinglibroside (ginsenoside Z R1), AM281, cysteamine bitrartate, PF-06447475, losmapimod, telepravir, miltefosine, incyclinide, poziotinib, and methylene blue.
(§2) • Basal Oxygen Consumption (OCR): This reflects the cellular oxygen usage under basal conditions, encompassing both energy production (ATP turnover) and background oxygen leak from the mitochondria. • Oligomycin Injection: Oligomycin is a compound that inhibits ATP synthase, an enzyme crucial for ATP production within mitochondria. • Oligomycin-resistant Respiration: After oligomycin injection, minimal oxygen consumption persists, representing non-ATP linked oxygen leak from the mitochondria, often termed proton leak. • ATP-linked Respiration: This value is derived by subtracting the oligomycin-resistant respiration from the basal OCR. It signifies the oxygen consumption specifically linked to ATP production through mitochondrial oxidative phosphorylation. • Mitochondrial Bioenergetic Efficiency: This parameter reflects the percentage decrease in oxygen consumption observed after oligomycin injection, indicating the mitochondria's efficiency in utilizing oxygen for ATP generation. • FCCP Injection: FCCP is a chemical that disrupts the link between mitochondrial electron transport and ATP production. • Maximal Respiration: Following FCCP injection, the highest oxygen consumption rate is measured, representing the maximum capacity of the mitochondria to utilize oxygen for respiration. • Spare Respiratory Capacity: This parameter is calculated by subtracting basal respiration from maximal respiration.
GM28010 primary human fibroblasts obtained from patients with SURF1 Leigh syndrome were purchased from the Coriell Cell Repositories (Camden, N.J.; repository number GM28010).
GM00038 primary human fibroblasts purchased from the Coriell Cell Repositories (Camden, N.J., repository number GM00038) and were used as a healthy control.
Fibroblasts were grown in glucose according to recommendation. Cells were plated in XF96 plates in culture medium and plated at 10,000 cells/well. The day after plating, the cells were treated with the compounds. The treatments completed in glucose medium and galactose medium. The compounds were tested at for 48 hours. The compounds were incubated at (37 C, 5% CO2) until the day of the experiment. The fibroblasts were run at passage numbers: GM28012 SURF1 Fibroblasts P5.
The assay medium was 10 mM glucose or galactose DMEM supplemented with 2 mM glutamine and 1 mM pyruvate. Injection Ports for basal glucose: Port A: 2 μM oligomycin; Port B: 2.5 μM FCCP; Port C: 4 μM FCCP; and Port D: 2 μM rotenone and antimycin A.
The data were normalized to cell number per well after the run. The Hoechst-stained nuclei were counted with a Operetta High-Content Imager.

[2] = system: GM28010 SURF1 mutant fibroblasts; experiment: Seahorse mitochondrial stress test, fibroblast cell line GM28010 (Experiment 1, single compounds); type: cell-based, human; conditions: 48 h; for ATP-linked respiration / basal respiration: galactose-cultured cells; for increase in ATP-linked respiration / increase in maximal respiration: both glucose and galactose-cultured cells
Experimental: as §1
Fibroblast cell line GM28010 is a primary human fibroblast cell line obtained from patients with SURF1 Leigh syndrome. It was purchased from the Coriell Cell Repositories (Camden, NJ, repository number GM28010). Cell line GM00038 was used as a healthy control for GM28010 and is a primary human fibroblast purchased from the Coriell Cell Repositories (Camden, NJ, repository number GM00038).
Fibroblasts were grown in glucose according to recommendation.
Cells were plated in XF96 plates in culture medium and were plated at 10,000 cells/well.
The day after plating, cells were treated with the compounds in Table 1. The treatments were completed in glucose medium and galactose medium. The compounds were tested at for 48 hours. The compounds were incubated at (37 C, 5% CO2) until the day of the experiment.
*Fibroblasts were run at passage numbers: GM28010 SURF1 Fibroblasts P5; GM00038F controls P9.
• Assay Medium: 10 mM glucose or galactose DMEM supplemented with 2 mM glutamine and 1 mM pyruvate. • Injection Ports for basal glucose: Port A: 2 μM oligomycin; Port B: 2.5 μM FCCP; Port C: 4 μM FCCP; and Port D: 2 μM rotenone and antimycin A.
Data were normalized to cell number per well after the run. The Hoechst-stained nuclei were counted with the Operetta High-Content Imager.
as §2

[3] = glucose-cultured cells, listed as Telepravir
[4] = glucose and galactose conditions
[5] = glucose-cultured cells, listed as incyclinide
[6] = glucose and galactose conditions, listed as miltefosine
[7] = glucose and galactose conditions, listed as glabridin
[8] = glucose and galactose conditions, listed as Posacanazole
[9] = 10 μM, listed as Ginsenoside Z R1 (Zinglibroside)

In the case of `CCC[C@H](NC(=O)[C@@H]1[C@H]2CCC[C@H]2CN1C(=O)[C@@H](NC(=O)[C@@H](NC(=O)c1cnccn1)C1CCCCC1)C(C)(C)C)C(=O)C(=O)NC1CC1` [Telaprevir, telaprevir], the “ATP production through OXPHOS” value [1] is reported as “Dose-dependent increase”, the “total ATP production rate” value [1] is reported as “without changes” and the respiration ([1]; galactose conditions) is reported as “did not result in major changes”. For the same compound, the “ATP production through OXPHOS” value ([1]; glucose) was “dose-dependent increase”, the ATP-linked respiration ([1]; glucose-cultured cells) was “dose-dependent increase” and the maximal respiration ([1]; glucose-cultured cells) was “without any changes”. For the same compound, the ATP-linked respiration [1, 3] was “dependent ↑ATP-Linked”, the maximal respiration [1, 3] was “through OXPHOS, no change” and the “ATP production through OXPHOS” value ([1]; glucose, listed as Telepravir) was “dependent ↑ATP-Linked”. The respiration [2, 4] was “did not result in major changes”.

For `NC(=O)C1=C(O)C[C@@H]2C[C@@H]3Cc4cccc(O)c4C(=O)C3=C(O)[C@]2(O)C1=O` [Incyclinide, incyclinide], the “all respiratory parameters measured” value ([1]; glucose-cultured cells) was “dose-dependent decrease”, the toxicity ([1]; glucose-cultured cells) was “Toxicity observed in glucose” and the toxicity [1, 5] was “showed toxicity”. The ATP-linked respiration [2] was “↑ basal respiration and ATP-”, the basal respiration [2] was “↑ basal respiration and ATP-” and the ATP-linked respiration ([2]; listed as incyclinide) was “some increase”. The basal respiration ([2]; listed as incyclinide) was “some increase”, the “all respiratory parameters measured” value ([2]; glucose-cultured cells) was “dose-dependent decrease” and the toxicity ([2]; glucose-cultured cells) was “Toxicity in glucose”. The toxicity [2, 5] was “some toxicity”.

For `CCCCCCCCCCCCCCCCOP(=O)([O-])OCC[N+](C)(C)C` [Miltefosine, miltefosine], the “ATP production through glycolysis” value [1] was “both conditions; ↑ in ATP”, the respiration [1, 6] was “did not result in major changes” and the “ATP production through glycolysis” value ([1]; listed as miltefosine) was “increase in ATP production through glycolysis”. For the same compound, the respiration [2, 6] was “did not result in major changes”.

`Cc1c(F)cc(C(=O)NC2CC2)cc1-c1ccc(C(=O)NCC(C)(C)C)cn1` [Losmapimod, losmapimod] was tested, and the “ATP production through OXPHOS” value [1] was “Increased ATP-linked respiration and ATP production through OXPHOS”, the “ATP production through glycolysis” value [1] was “glucose-cultured cells. ↓ATP” and the “total ATP production rate” value [1] was “without changes; also recorded: maintained”. The “increase in respiration compared with GM28010” value [1] was “did not increase respiration as much”, the “increase in respiration compared with GM28010” value ([1]; listed as losmapimod) was “not as impressive as was observed in GM28010” and the ATP-linked respiration ([1]; glucose-cultured cells, listed as losmapimod) was “increased in ATP-linked respiration”. The “ATP production through glycolysis” value ([1]; listed as losmapimod) was “decrease in ATP production through glycolysis”, the “total ATP production rate” value ([1]; listed as losmapimod) was “maintained” and the ATP-linked respiration ([1]; medium not stated) was “Increased ATP-linked respiration”. For the same compound, the “ATP production through glycolysis” value [2] was “conditions. ↓ ATP production”, the “increase in ATP-linked respiration” value [2] was 12-15% increases in and the “increase in maximal respiration” value [2] was 12-15% increases in. For the same compound, the “increase in ATP-linked respiration” value ([2]; listed as losmapimod) was 12-15%, the “increase in maximal respiration” value ([2]; listed as losmapimod) was 12-15% and the respiration [2, 4] was “Increased respiration”. For the same compound, the increase in respiration ([2]; glucose and galactose culture conditions) was “up to 15%” and the “ATP production through glycolysis” value ([2]; listed as losmapimod) was “decrease in ATP production through glycolysis”.

For `N#Cc1cccc(-c2c[nH]c3ncnc(N4CCOCC4)c23)c1` [PF-06447475], the “ATP production through glycolysis” value [1] was “increase in ATP production glycolysis; also recorded: both conditions. ↑ ATP”, the “total ATP production rate” value ([1]; 1 μM) was “increased the total ATP Production rate” and the “maximal respiration (maximal OCR)” value [1, 4] was “did not result increase maximal respiration”. For the same compound, the “ATP production through OXPHOS” value [2] was “increase in ATP production; also recorded: both conditions. ↑ ATP”, the “ATP production through glycolysis” value [2] was “increase in ATP production; also recorded: both conditions. ↑ ATP” and the maximal respiration [2, 4] was “did not result increase maximal respiration; also recorded: did not result in an increase”.

With `CC1(C)C=Cc2c(ccc3c2OC[C@@H](c2ccc(O)cc2O)C3)O1` [Glabridin, glabridin] the “maximal respiration (maximal OCR)” value [1, 4] was “↓ maximal OCR in both”, the “maximal respiration (maximal OCR)” value [1, 7] was “decreased maximal respiration” and the respiration [2, 4] was “did not result in major changes”. The respiration [2, 7] was “did not result in major changes”.

For `C=CC(=O)N1CCC(Oc2cc3c(Nc4ccc(Cl)c(Cl)c4F)ncnc3cc2OC)CC1` [Poziotinib, poziotinib], the respiration ([2]; glucose and galactose conditions, listed as poziotinib) was “did not result in major changes”, the glycolysis ([2]; glucose-cultured cells) was “dose-dependent decrease” and the maximal respiration ([2]; glucose-cultured cells) was “dose-dependent decrease”. The toxicity ([2]; glucose-cultured cells) was “some toxicity” and the “ATP production through glycolysis” value ([2]; listed as poziotinib) was “decrease ATP production through glycolysis”.

`CC[C@@H]([C@H](C)O)n1ncn(-c2ccc(N3CCN(c4ccc(OC[C@@H]5CO[C@@](Cn6cncn6)(c6ccc(F)cc6F)C5)cc4)CC3)cc2)c1=O` [Posaconazole, posaconazole] was tested, and the “total ATP production rate” value [1] was “compensation with increased glycolysis”, the respiration [1, 4] was “decreased respiration” and the respiration [1, 8] was “↓ respiration, total ATP rate”. For the same compound, the “total ATP” value [1] was “total ATP drops”, the “total ATP” value ([1]; listed as Posacanazole) was “(10 uM) where ATP drops” and the “total ATP production rate” value ([1]; listed as Posacanazole) was “compensated by glycolysis”. For the same compound, the toxicity ([2]; all concentrations) was “toxic at all conc”, the respiration [2, 4] was “did not result in major changes” and the respiration [2, 8] was “↓ respiration”. For the same compound, the respiration ([2]; higher concentrations) was “decreased respiration”.

With `Cc1c(C(=O)NN2CCOCC2)nn(-c2ccc(Cl)cc2Cl)c1-c1ccc(I)cc1` [AM281] the ATP production rates [1] was “increased ATP production rates”, the ATP via glycolysis ([1]; 1 μM and 5 μM) was “OCR. ↑ATP via glycolysis @” and the “maximal respiration (maximal OCR)” value [1, 4] was “dose-dependent decreased maximal respiration”. For the same compound, the “ATP production through glycolysis” value ([2]; 5 and 10 μM) was “increase in ATP production primarily through glycolysis” and the respiration [2, 4] was “did not result in major changes”.

`CC1(C)CC[C@]2(C(=O)O)CC[C@]3(C)C(=CC[C@@H]4[C@@]5(C)CC[C@H](O[C@@H]6O[C@H](C(=O)O)[C@@H](O)[C@H](O)[C@H]6O[C@@H]6O[C@H](CO)[C@@H](O)[C@H](O)[C@H]6O)C(C)(C)[C@@H]5CC[C@]43C)[C@@H]2C1` [Ginsenoside Z R1] was tested, and the “ATP production through OXPHOS” value [1] was “increase in ATP production”, the “ATP production through glycolysis” value [1] was “increase in ATP production” and the “ATP production through OXPHOS” value ([1]; 1 μM) was “increased ATP production through OXPHOS”. The “total ATP production rate” value ([1]; 1 μM) was “increased ATP production through OXPHOS and total ATP production rate”, the “maximal respiration (maximal OCR)” value [1, 4] was “did not result in changes” and the “ATP production through OXPHOS” value [2, 9] was “increase in ATP production”. The “ATP production through glycolysis” value [2, 9] was “increase in ATP production”, the “ATP production through OXPHOS” value ([2]; 10 μM, listed as Zinglibroside) was “both conditions: ↑ATP via” and the “ATP production through glycolysis” value ([2]; 10 μM, listed as Zinglibroside) was “both conditions: ↑ATP via”. The “ATP production through OXPHOS” value ([2]; 10 μM, listed as zinglibroside) was “increase in ATP production”, the “ATP production through glycolysis” value ([2]; 10 μM, listed as zinglibroside) was “increase in ATP production” and the maximal respiration [2, 4] was “did not result in changes”.
